Assay results from patent US10344017B2, “Pyrrolcarboxamide derivatives for the inhibition of ERK5” (CANCER RESEARCH TECHNOLOGY LIMITED, priority 2014, dated 2019).
pIC50: −log10 of the molar value. Like-named read-outs stand apart in the source and are kept apart here.

Target: T1, ERK5 (Homo sapiens, UniProt Q13164)
T1 construct: made in house
Assay: ERK5 IMAP assay (fluorescence polarisation)
Format: biochemical
Protocol: The assay buffer was prepared using 0.01% Tween®-20 5× stock, supplied as part of IMAP™ FP Progressive Binding System Kit (Molecular Devices R7436) and diluted to 1× using miliQ H2O. 1 μL of a 1M DTT stock was added for every 1 mL of 1× assay buffer to give a final concentration of 1 mM DTT.
ERK5 was expressed and purified at CRT-DL by Leon Pang and Sue Young. Aliquots were stored at −80° C. The ERK5 working solution was used at a […] final dilution in assay buffer. […] For 1 plate, […] of ERK5 stock was added to 2262 μL of 1× assay buffer.
To prepare the IMAP™ binding solution for one plate 20.5 μL of IMAP™ binding reagent stock, 1476 μL of 1× binding buffer A (60%), and 984 μL of binding buffer B (40%) (IMAP™ FP Progressive screening express kit (Molecular Devices R8127) was added to 9819.5 μL of milliQ H2O.
1 μL of inhibitor (in 60:40 H2O/DMSO) or 60:40 H2O/DMSO (for controls and blanks) were dry-spotted into the relevant wells of a 384-well assay plate using the MATRIX PlateMate® Plus. 5 μL of ERK5 working solution was added to test and control wells, and 5 μL of 1× assay buffer added to blanks; 4 μL of ATP/substrate working solution was added to all wells using a Matrix multichannel pipette. The plate was sealed using DMSO resistant clear seal and incubated for 2 h at 37° C. 1 μL of the kinase reaction mixture from the first plate was dry spotted into a second 384-well assay plate using the MATRIX PlateMate® Plus. 9 μL of assay buffer was added, followed by 30 μL of IMAP™ binding solution using a multichannel pipette. The plate was incubated at RT in darkness for 2 h. The assay plate was then read on an Analyst HT plate reader (Molecular Devices) using the settings described below: […]

[1] = average (e.g. geometric mean) where more than one data point, read-out: ERK5 IC50

T1 sequence (Q13164 whole entry): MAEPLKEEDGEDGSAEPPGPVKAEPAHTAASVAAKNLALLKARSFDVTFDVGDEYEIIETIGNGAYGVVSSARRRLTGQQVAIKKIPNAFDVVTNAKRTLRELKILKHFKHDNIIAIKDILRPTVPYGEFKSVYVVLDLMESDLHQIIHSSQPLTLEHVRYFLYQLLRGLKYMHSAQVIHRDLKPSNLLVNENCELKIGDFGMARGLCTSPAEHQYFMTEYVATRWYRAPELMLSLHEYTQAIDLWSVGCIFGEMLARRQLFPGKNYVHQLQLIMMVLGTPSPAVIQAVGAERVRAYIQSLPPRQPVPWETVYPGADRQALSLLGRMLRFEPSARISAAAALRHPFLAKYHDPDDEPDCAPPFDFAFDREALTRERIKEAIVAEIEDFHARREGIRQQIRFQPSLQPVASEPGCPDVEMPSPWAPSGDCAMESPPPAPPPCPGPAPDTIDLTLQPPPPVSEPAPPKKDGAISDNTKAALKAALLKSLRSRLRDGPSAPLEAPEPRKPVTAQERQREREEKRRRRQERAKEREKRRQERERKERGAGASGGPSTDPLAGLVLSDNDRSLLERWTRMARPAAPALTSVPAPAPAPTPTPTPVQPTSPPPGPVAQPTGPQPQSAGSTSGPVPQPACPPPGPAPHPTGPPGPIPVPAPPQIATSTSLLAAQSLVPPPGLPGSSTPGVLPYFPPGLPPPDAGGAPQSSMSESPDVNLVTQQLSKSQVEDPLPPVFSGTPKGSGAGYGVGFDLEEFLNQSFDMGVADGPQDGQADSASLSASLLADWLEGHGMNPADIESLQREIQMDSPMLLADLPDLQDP

`O=C(Nc1ccncn1)c1cc(C(=O)c2c(F)cccc2Br)c[nH]1` [Example 133, 4-(2-Bromo-6-fluorobenzoyl)-N-(pyrimidin-4-yl)-1H-pyrrole-2-carboxamide] was tested, and the pIC50 [1] was 5.75.
Molecule `C#Cc1cccc(F)c1C(=O)c1c[nH]c(C(=O)NC2CCN(C)CC2)c1` [Example 205, 4-(2-Ethynyl-6-fluorobenzoyl)-N-(1-methylpiperidin-4-yl)-1H-pyrrole-2-carboxamide] has a pIC50 [1] of 5.55.
`Cn1ccnc1Cn1cc(NC(=O)c2cc(C(=O)c3c(Cl)ccc(Cl)c3F)c[nH]2)cn1` [Example 51, 4-(3,6-Dichloro-2-fluorobenzoyl)-N-(1-((1-methyl-1H-imidazol-2-yl)methyl)-1H-pyrazol-4-yl)-1H-pyrrole-2-carboxamide] showed a pIC50 [1] of 7.75.
`O=C(Nc1cccnc1)c1cc(C(=O)c2c(Cl)ccc(OC(CO)CCl)c2F)c[nH]1` (stereo not drawn) [Example 270, 4-(6-Chloro-3-((1-chloro-3-hydroxypropan-2-yl)oxy)-2-fluorobenzoyl)-N-(pyridin-3-yl)-1H-pyrrole-2-carboxamide] was tested, and the pIC50 [1] was 6.34.
`CNc1ncc(NC(=O)c2cc(C(=O)c3c(F)cccc3Cl)c[nH]2)cn1` [Example 12, 4-(2-Chloro-6-fluorobenzoyl)-N-(2-(methylamino)pyrimidin-5-yl)-1H-pyrrole-2-carboxamide] was tested, and the pIC50 [1] was 5.76.
Work on `CCc1ccncc1NC(=O)c1cc(C(=O)c2c(F)cccc2Cl)c[nH]1` [Example 88, 4-(2-Chloro-6-fluorobenzoyl)-N-(4-ethylpyridin-3-yl)-1H-pyrrole-2-carboxamide] yielded a pIC50 [1] of 5.67.
With `O=C(Nc1ccc2cn[nH]c2c1)c1cc(C(=O)c2c(F)cccc2Br)c[nH]1` [Example 157, 4-(2-Bromo-6-fluorobenzoyl)-N-(1H-indazol-6-yl)-1H-pyrrole-2-carboxamide] the pIC50 [1] was 5.15.
For `COc1ccc(F)c(C(=O)c2c[nH]c(C(=O)Nc3cncnc3)c2)c1Cl` [Example 75, 4-(2-chloro-6-fluoro-3-methoxybenzoyl)-N-(pyrimidin-5-yl)-1H-pyrrole-2-carboxamide], the pIC50 [1] was 6.36.
Molecule `CCc1cccc(F)c1C(=O)c1c[nH]c(C(=O)NC2CCNCC2)c1` [Example 200, 4-(2-Ethyl-6-fluorobenzoyl)-N-(piperidin-4-yl)-1H-pyrrole-2-carboxamide] has a pIC50 [1] of 5.30.
`O=C(Nc1cc[n+]([O-])cc1)c1cc(C(=O)c2c(F)cccc2F)c[nH]1` [Example 127, 4-(4-(2,6-Difluorobenzoyl)-1H-pyrrole-2-carboxamido)pyridine 1-oxide] gave a pIC50 [1] of 4.94.
`O=C(NC1CCOCC1)c1cc(C(=O)c2c(F)cccc2Br)c[nH]1` [Example 198, 4-(2-Bromo-6-fluorobenzoyl)-N-(tetrahydro-2H-pyran-4-yl)-1H-pyrrole-2-carboxamide] gave a pIC50 [1] of 5.91.
`C=C(C)c1ccc(F)c(C(=O)c2c[nH]c(C(=O)Nc3cccnc3)c2)c1F` [Example 168, 4-(2,6-Difluoro-3-(prop-1-en-2-yl)benzoyl)-N-(pyridin-3-yl)-1H-pyrrole-2-carboxamide] was tested, and the pIC50 [1] was 5.61.
In the case of `C=Cc1ccc(F)c(C(=O)c2c[nH]c(C(=O)NC3CCN(C)CC3)c2)c1F` [Ex 167], the pIC50 [1] was 6.19.
`O=C(Nc1ccc(OC2COC2)nc1)c1cc(C(=O)c2c(Cl)ccc(Cl)c2F)c[nH]1` [Example 279, 4-(3,6-Dichloro-2-fluorobenzoyl)-N-(6-(oxetan-3-yloxy)pyridin-3-yl)-1H-pyrrole-2-carboxamide] showed a pIC50 [1] of 6.06.
In the case of `Cc1ccc(F)c(C(=O)c2c[nH]c(C(=O)Nc3cncnc3)c2)c1` [Example 233, 4-(2-Fluoro-5-methylbenzoyl)-N-(pyrimidin-5-yl)-1H-pyrrole-2-carboxamide], the pIC50 [1] was 5.28.
Molecule `O=C(Nc1ccnnc1)c1cc(C(=O)c2c(F)cccc2Cl)c[nH]1` [Example 138, 4-(2-Chloro-6-fluorobenzoyl)-N-(pyridazin-4-yl)-1H-pyrrole-2-carboxamide] has a pIC50 [1] of 6.36.
`O=C(Nc1ccncn1)c1cc(C(=O)c2c(F)cccc2F)c[nH]1` [Example 130, 4-(2,6-Difluorobenzoyl)-N-(pyrimidin-4-yl)-1H-pyrrole-2-carboxamide] was tested, and the pIC50 [1] was 5.67.
`Cc1cc(NC(=O)c2cc(C(=O)c3c(Cl)ccc(Cl)c3F)c[nH]2)no1` [Example 58, 4-(3,6-Dichloro-2-fluorobenzoyl)-N-(5-methylisoxazol-3-yl)-1H-pyrrole-2-carboxamide] was tested, and the pIC50 [1] was 5.61.
With `Cc1ccc(F)c(C(=O)c2c[nH]c(C(=O)Nc3cccnc3)c2)c1F` [Example 217, 4-(2.6-Difluoro-3-methylbenzoyl)-N-(pyridin-3-yl)-1H-pyrrole-2-carboxamide] the pIC50 [1] was 6.18.
Molecule `O=C(Nc1cnn(Cc2cccnc2)c1)c1cc(C(=O)c2c(Cl)ccc(Cl)c2F)c[nH]1` [Example 49, 4-(3,6-Dichloro-2-fluorobenzoyl)-N-(1-(pyridin-3-ylmethyl)-1H-pyrazol-4-yl)-1H-pyrrole-2-carboxamide] has a pIC50 [1] of 7.69.
With `O=C(Nc1cncnc1)c1cc(C(=O)c2c(F)ccc(Cl)c2Cl)c[nH]1` [Example 170, 4-(2,3-Dichloro-6-fluorobenzoyl)-N-(pyrimidin-5-yl)-1H-pyrrole-2-carboxamide] the pIC50 [1] was 6.46.
For `CN1CCN(c2cc(NC(=O)c3cc(C(=O)c4c(F)cccc4Cl)c[nH]3)ccn2)CC1` [Example 36, 4-(2-Chloro-6-fluorobenzoyl)-N-(2-(4-methylpiperazin-1-yl)pyridin-4-yl)-1H-pyrrole-2-carboxamide], the pIC50 [1] was 6.86.
`COCCOc1ccc(Cl)c(C(=O)c2c[nH]c(C(=O)Nc3cnn(C)c3)c2)c1F` [Example 260, 4-(6-Chloro-2-fluoro-3-(2-methoxyethoxy)benzoyl)-N-(1-methyl-1H-pyrazol-4-yl)-1H-pyrrole-2-carboxamide] showed a pIC50 [1] of 5.92.
In the case of `Cn1cc(NC(=O)c2cc(C(=O)c3c(Cl)ccc(OC4CCOCC4)c3F)c[nH]2)cn1` [Example 268, 4-(6-Chloro-2-fluoro-3-((tetrahydro-2H-pyran-4-yl)oxy)benzoyl)-N-(1-methyl-1H-pyrazol-4-yl)-1H-pyrrole-2-carboxamide], the pIC50 [1] was 5.55.
Molecule `CCOc1ccncc1NC(=O)c1cc(C(=O)c2c(Cl)ccc(Cl)c2F)c[nH]1` [Example 97, 4-(3,6-Dichloro-2-fluorobenzoyl)-N-(4-ethoxypyridin-3-yl)-1H-pyrrole-2-carboxamide] has a pIC50 [1] of 5.86.
`Cc1ccc(F)c(C(=O)c2c[nH]c(C(=O)Nc3cncnc3)c2)c1Cl` [Example 176, 4-(2-Chloro-6-fluoro-3-methylbenzoyl)-N-(pyrimidin-5-yl)-1H-pyrrole-2-carboxamide] was tested, and the pIC50 [1] was 5.93.
Molecule `Cc1ccc(NC(=O)c2cc(C(=O)c3c(F)cccc3Cl)c[nH]2)c[n+]1[O-]` [Example 118, 5-(4-(2-Chloro-6-fluorobenzoyl)-1H-pyrrole-2-carboxamido)-2-methylpyridine 1-oxide] has a pIC50 [1] of 5.88.
Work on `O=C(Nc1ccncc1)c1cc(C(=O)c2c(F)cccc2F)c[nH]1` [Example 121, 4-(2,6-Difluorobenzoyl)-N-(pyridin-4-yl)-1H-pyrrole-2-carboxamide] yielded a pIC50 of 6.05.
Work on `O=C(Nc1cccnc1)c1cc(C(=O)c2c(Cl)ccc(Br)c2F)c[nH]1` [Example 181, 4-(3-Bromo-6-chloro-2-fluorobenzoyl)-N-(pyridin-3-yl)-1H-pyrrole-2-carboxamide] yielded a pIC50 [1] of 7.18.
`O=C(Nc1ccnc(N2CCOCC2)c1)c1cc(C(=O)c2c(Cl)ccc(Cl)c2F)c[nH]1` [Example 38, 4-(3,6-Dichloro-2-fluorobenzoyl)-N-(2-morpholinopyridin-4-yl)-1H-pyrrole-2-carboxamide] showed a pIC50 [1] of 6.46.
In the case of `O=C(Nc1cnn(C2CCN(CC(F)(F)F)CC2)c1)c1cc(C(=O)c2c(Cl)ccc(Cl)c2F)c[nH]1` [Example 42, 4-(3,6-Dichloro-2-fluorobenzoyl)-N-(1-(1-(2,2,2-trifluoroethyl)piperidin-4-yl)-1H-pyrazol-4-yl)-1H-pyrrole-2-carboxamide], the pIC50 [1] was 5.45.
Work on `O=C(Nc1cncnc1)c1cc(C(=O)c2c(Cl)ccc(Br)c2F)c[nH]1` [Example 182, 4-(3-Bromo-6-chloro-2-fluorobenzoyl)-N-(pyrimidin-5-yl)-1H-pyrrole-2-carboxamide] yielded a pIC50 [1] of 6.22.
`O=C(Nc1ccc(CO)nc1)c1cc(C(=O)c2c(Cl)ccc(Cl)c2F)c[nH]1` [Example 120, 4-(3,6-dichloro-2-fluorobenzoyl)-N-(6-(hydroxymethyl)pyridin-3-yl)-1H-pyrrole-2-carboxamide] showed a pIC50 [1] of 6.70.
Molecule `CCN1CCC(NC(=O)c2cc(C(=O)c3c(F)cccc3Cl)c[nH]2)CC1` [Example 5, 4-(2-Chloro-6-fluorobenzoyl)-N-(1-ethylpiperidin-4-yl)-1H-pyrrole-2-carboxamide] has a pIC50 [1] of 6.36.
For `CN1CCC(N(C)c2ncc(NC(=O)c3cc(C(=O)c4c(Cl)ccc(Cl)c4F)c[nH]3)cn2)CC1` [Example 105, 4-(3,6-Dichloro-2-fluorobenzoyl)-N-(2-(methyl(1-methylpiperidin-4-yl)amino)pyrimidin-5-yl)-1H-pyrrole-2-carboxamide], the pIC50 [1] was 7.68.
With `CCc1cccc(F)c1C(=O)c1c[nH]c(C(=O)NC2CCN(C)CC2)c1` [Example 201, 4-(2-Ethyl-6-fluorobenzoyl)-N-(1-methylpiperidin-4-yl)-1H-pyrrole-2-carboxamide] the pIC50 [1] was 5.30.
